Tests used:
[1] = molecular target: T1, Aβ aggregate (Homo sapiens, UniProt P05067); test: LC/MS/MS Aβ binding propensity (reduction of HYP peak area in MRM); settings: HYP 20–80 μM with 30 μM Aβ aggregate vs HYP alone
T1 construct: purchased DGpeptites, Hangzhou, CHINA
From the text: Quercetin-3-O-β-D-galactopyranoside (Hyperoside, HYP), belongs to the class of flavonol glycosides and is derived from Crataegus pinnatifida Bunge Aβ is a well-known biomarker correlated to AD, therefore, the effect of HYP in targeting Aβ was investigated by molecular docking. […] HYP with Aβ molecular surface interaction and hydrogen bonding information were shown in supplementary 1A and 1B. […] The formation of Aβ aggregate and its particle size was verified by DLS (Fig. 1C). While the average particle size of the Aβ monomer is 365.62 nm, the particle size of Aβ aggregate is 1877 nm (Fig. 1D). The detection on the formation of Aβ aggregate was then performed by using the ThT fluorescence assay. ThT is a benzothiazole-like small molecule that specifically binds to amyloid fibrils. […] The direct binding affinity of HYP to Aβ aggregate was confirmed by the BLI assay. […] By using HYP alone (without Aβ aggregate incubation) as the control, all incubation mixtures were analyzed by using LC/MS/MS under the same chromatographic conditions according to our previous reported detection method. The quantitative reduction (%) in the peak area, representing the Aβ binding propensity of the tested compound [39] is used for statistical analysis.

[2] = system: HT22 cells; test: Mitochondrial membrane potential by JC-1; format: cell-based
From the text: The mitochondrial membrane potential of HT22 stained with 5,5′,6,6′-tetrachloro-1,1′,3,3′-tetraethylbenzimidazolyl cobalt iodide (JC-1) was observed by laser scanning confocal microscopy.

[3] = system: APP/PS1 mice; test: Dot blot of Aβ forms in cortex and hippocampus lysates; format: in vivo
Protocol: 4 μL of prepared cell or animal sample protein solutions were dotted for adsorption onto methanol-pre-activated PVDF membranes and then blocked with 5% non-fat dry milk in Tris-buffered saline and Tween 20 for 1 h. The samples were incubated overnight at 4 °C with anti-amyloid fibril primary antibody [mOC87] (Abcam, MA, USA), anti-amyloid oligomer A11 (Invitrogen, CA, USA) or purified anti-β-amyloid (1–16) antibody (clone 6E10) (Biolegend, CA, USA) (1:1000), followed by HRP-conjugated secondary antibody. Protein bands were detected using Super Signal Sensitive ECL Western Blotting Detection Reagent (Beyotime, Beijing, China) and observed using a gel imaging device (Amersham Imager 800, GE, Tokyo, Japan). All animal care and experimental procedures were performed in accordance with the “Institutional Animal Care and User Committee Guidelines” of the Macau University of Science and Technology. APP/PSEN1 (APP/PS1) mice (N000175) were purchased from the Nanjing Institute of Biomedical Sciences, Nanjing University, China, weighing 25 ± 5 g. The animals were housed in a temperature-controlled room with a 12 h light/dark cycle and given ad libitum food and water. Male mice were randomly divided into the following 6 experimental groups. […]

[4] = system: HT22 cells; test: Western blot of Bcl-2, Bax and cyto-c in HT22 cells; format: cell-based; settings: HT22 cells co-treated with Aβ aggregates 30 μM and HYP, 24 h
Protocol: After HYP treatment, the cells were lysed with RIPA. Protein concentrations were determined by Bio-Rad protein assay (Bio-Rad Laboratories, CA, USA). After electrophoretic separation, the gels were blotted and stained with primary antibodies. Binding of antibodies was visualized with peroxidase-coupled secondary antibodies using ECL Western Blotting detection reagents (Invitrogen, Scotland, UK). Band intensities were quantified using ImageJ software. Data were obtained from three independent experiments.

[5] = system: HT22 cells; test: LIVE/DEAD cells analysis (calcein AM / PI); format: cell-based; settings: aggregated Aβ-treated HT22, HYP co-treatment 24 h
Protocol: According to the manufacturer's instructions, cell death was detected by Calcein AM Cell Viability Assay Kit (Beyotime, Shanghai, CHINA). 5 × 10^4 HT22 cells per well were seeded in 24-well plates, and HT22 was treated with HYP (20–80 μM) or PBS for 24 h. After overnight incubation, treated cells were stained with Calcein/Propidium Iodide (PI) dye for 20 min. Cells images were then visualized and captured by using Olympus IX71 fluorescence microscope with FITC and TRITC filters consecutively. Green and red fluorescence images were merged and analyzed with cellSens Standard 1.8.1 software. The percentage of cell death was quantified by dividing the number of dead cells (red fluorescence) by the total number of cells.

[6] = system: HT22 cells; test: Real time mitochondrial membrane potential (rhodamine 123); format: cell-based; settings: rhodamine 123-stained HT22 cells, Aβ 30 μM with HYP 20, 40, 80 μM
From the text: Disruption of RyR2 regulation in the ER mediates the most important signal transduction cascade responses associated with AD [24]. RyR2 channels are implicated in many cellular functions, particularly mitochondrial metabolism. As confirmed in previous section (Fig. 9G), the expression of mRNA for MCU was decreased in RyR2 knockdown cells. […] Therefore, the role of HYP in regulating Aβ-induced ER-mitochondrial Ca^2+ homeostasis and apoptosis were further validated. […] It was reported that mitochondrial calcium level affects cellular energy by activating oxidative metabolism, mitochondrial respiration and ATP synthesis. […] To further verify the result, the membrane potential was stained with a more sensitive dye, JC-1 (Fig. 10C). JC-1 is a dual-emission mitochondrial membrane potential sensing dye, which is accumulated and aggregated in polarized (normal) mitochondria with excitation and emission in the red spectrum at ∼590 nm. […] It is noteworthy that increased mitochondrial calcium influx can trigger apoptosis. To further explore the protective role of HYP in Aβ -induced neuronal cell death, HT22 cells were co-treated with Aβ aggregates and HYP for 24 h. The expression level of selected apoptotic markers including Bcl-2, Bax and cyto-c were detected by Western blot (Fig. 10E).

T1 sequence (P05067 672-713 limits assumed): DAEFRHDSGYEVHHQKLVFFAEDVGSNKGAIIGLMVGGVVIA

O=c1c(O[C@@H]2O[C@H](CO)[C@H](O)[C@H](O)[C@H]2O)c(-c2ccc(O)c(O)c2)oc2cc(O)cc(O)c12 [HYP, Quercetin-3-O-β-D-galactopyranoside]
decrease in the peak area of HYP in MRM (Aβ binding propensity) [1]: dose-dependent binding affinity | mitochondrial membrane potential (ratio of aggregated and monomeric JC-1) ([2]; Aβ aggregates + HYP 20–80 μM, 24 h): rescue the loss of mitochondrial membrane potential induced by Aβ aggregates in a dose-dependent manner | mitochondrial membrane potential (JC-1) ([2]; HYP alone): no effect | level of oligomeric, fibrillar and total Aβ (dot blot) [3]: reduced the level of both oligomeric and fibrillar form of Aβ, without altering the level of total Aβ | ratio of Bax / Bcl-2 and level of cyto-c [4]: ratio of Bax / Bcl-2 was decreased with the reduction in the level of cyto-c | cell viability by calcein AM / PI staining [5]: increase of cell viability | mitochondrial membrane potential, real time [6]: attenuated the decrease of membrane potential triggered by Aβ
